The results in this text go back to PubChem BioAssay (NCI).

Among the test systems are LOX IMVI melanoma; CCRF-CEM leukemia; SW-620 colon; SF-295 CNS; UACC-257 melanoma; SN12C renal; SK-MEL-5 melanoma.
What all share (assay): NCI-60 cell line screen, 48 h

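Growth conditions: 96-well plates. Treatment: test compound, 48 hours, 5 concentrations. Analysis: linear interpolation between bracketing concentrations; unreached endpoints set to highest concentration. TGI is the concentration that stops growth completely.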 Where only a bound is given, the exact number is not on record here.

As for `CN(c1ccccc1)c1c(Cl)c(=O)oc2c1ccc1occc12`, the TGI in the test with LOX IMVI melanoma, in the test on CCRF-CEM leukemia, in the test on SW-620 colon, in the test with SF-295 CNS, in the test with UACC-257 melanoma and with SN12C renal was above 100 µM in each case. Also, in the test on SK-MEL-5 melanoma, the TGI was above 100 µM.
On to `C=CCc1cc(OC)c2c(c1)C(OC)CC(c1ccc(OC)c(OC)c1)O2` (stereo not drawn), for which the TGI in the test on LOX IMVI melanoma, in the test with CCRF-CEM leukemia, in the test with SW-620 colon, in the test with SF-295 CNS, in the test on UACC-257 melanoma and in the test with SN12C renal was above 100 µM each time. Also, the TGI in the test on SK-MEL-5 melanoma is above 100 µM.
Regarding `CC1(C)C(=O)C(C)(C)C1=S`, the TGI with LOX IMVI melanoma, with CCRF-CEM leukemia, in the test with SW-620 colon, in the test with SF-295 CNS, with UACC-257 melanoma and with SN12C renal was above 100 µM throughout. Further, the TGI in the test on SK-MEL-5 melanoma is above 100 µM.
As to `COc1cc(CCc2ccc(N)cc2)cc(OC)c1OC`, the TGI in the test on LOX IMVI melanoma is above 100 µM; in the test on CCRF-CEM leukemia, above 100 µM; in the test on SW-620 colon, above 100 µM; with SF-295 CNS it was above 61.6 µM; with UACC-257 melanoma it was above 100 µM; in the test with SN12C renal it was above 100 µM. The compound further gave a TGI in the test with SK-MEL-5 melanoma above 89.6 µM.
For the compound `CCOC(=O)C1(C)CCCCC(=O)N1` (stereo not drawn), the TGI in the test with LOX IMVI melanoma, with SW-620 colon, in the test on SF-295 CNS and in the test with SN12C renal was above 100 µM each time.
Turning to `c1ccc2c(c1)cc1n2CC2CN=NC12` (stereo not drawn), the TGI with LOX IMVI melanoma, with SW-620 colon, in the test with SF-295 CNS, in the test with UACC-257 melanoma, with SN12C renal and with SK-MEL-5 melanoma was above 100 µM each time.
`Nc1c(Cl)ncnc1NCCCNc1ncnc(Cl)c1N`: the TGI with LOX IMVI melanoma, in the test with CCRF-CEM leukemia, in the test with SW-620 colon, in the test with SF-295 CNS, in the test with UACC-257 melanoma and with SN12C renal was above 100 µM throughout. The TGI in the test on SK-MEL-5 melanoma is above 100 µM.
For the compound `CC(SC(=O)Nc1ccc(N=Nc2ccccc2)cc1)C(=O)O` (stereo not drawn), the TGI in the test on LOX IMVI melanoma, in the test with CCRF-CEM leukemia, in the test with SW-620 colon, in the test on SF-295 CNS, in the test on UACC-257 melanoma and with SN12C renal was above 100 µM throughout.
Regarding `ClC(Cl)[Si]12OCCN(CCO1)CCO2`, the TGI in the test on CCRF-CEM leukemia, in the test with SW-620 colon, in the test with SF-295 CNS, in the test on UACC-257 melanoma, in the test on SN12C renal and with SK-MEL-5 melanoma was above 100 µM in each case.
As to `CCOc1ccc(NC(=O)CC2C(=O)Nc3ccccc3S2(=O)=O)cc1` (stereo not drawn), the TGI in the test on LOX IMVI melanoma, in the test with SW-620 colon, with SF-295 CNS, in the test with UACC-257 melanoma and with SN12C renal was above 100 µM throughout.
As to `CC(=O)NNc1nc(C)c(C(=O)NNC(=O)C(=O)Nc2ccc(Cl)cc2Cl)s1`, the TGI was above 100 µM in the test with LOX IMVI melanoma; 56.2 µM in the test on CCRF-CEM leukemia; 50.2 µM with SW-620 colon; above 100 µM in the test on SF-295 CNS; 83.4 µM with UACC-257 melanoma; above 100 µM in the test with SN12C renal. In the test with SK-MEL-5 melanoma, the TGI is above 100 µM.
For `Cn1nc(-c2ccccc2)c2c(/C=C/c3ccccc3)onc2c1=O`, the TGI in the test with LOX IMVI melanoma, in the test with CCRF-CEM leukemia, with SF-295 CNS, with UACC-257 melanoma, with SN12C renal and in the test on SK-MEL-5 melanoma was above 100 µM in each case.
With `Cc1ccc(S(=O)(=O)N/N=C(/c2nc3ccc([N+](=O)[O-])cc3[nH]c2=O)C(O)c2ccc(C(O)/C(=N\NS(=O)(=O)c3ccc(C)cc3)c3nc4ccc([N+](=O)[O-])cc4[nH]c3=O)cc2)cc1` (stereo not drawn), the TGI with LOX IMVI melanoma, in the test with CCRF-CEM leukemia, in the test on SW-620 colon, in the test with UACC-257 melanoma and in the test with SK-MEL-5 melanoma was above 100 µM each time.
With `COc1cccc(-c2cc(=O)c3ccccc3[nH]2)c1`, the TGI is above 100 µM in the test on LOX IMVI melanoma; above 100 µM in the test on CCRF-CEM leukemia; above 100 µM with SW-620 colon; 14.8 µM in the test with SF-295 CNS; above 100 µM in the test on SN12C renal; above 100 µM in the test on SK-MEL-5 melanoma.
Consider `CCSc1c2ccccc2c(-c2nc(F)nc(F)n2)n1CCc1ccccc1`, for which the TGI in the test with LOX IMVI melanoma, in the test with CCRF-CEM leukemia, in the test on SW-620 colon, with SF-295 CNS and in the test with SN12C renal was above 100 µM throughout.
As for `NC(=O)NC1C(C(N)=O)N(Cc2ccccc2)C(=O)N1Cc1ccccc1` (stereo not drawn), the TGI in the test with LOX IMVI melanoma, with CCRF-CEM leukemia, in the test with SW-620 colon, in the test on SF-295 CNS, in the test with UACC-257 melanoma and with SK-MEL-5 melanoma was above 100 µM each time.
As to `O=C(NNc1ccccc1)/C(=C/c1ccc2c(c1)OCO2)NC(=O)c1ccccc1`, the TGI in the test with LOX IMVI melanoma, in the test with CCRF-CEM leukemia, in the test with SF-295 CNS, in the test on UACC-257 melanoma, with SN12C renal and in the test on SK-MEL-5 melanoma was above 100 µM throughout.
